Earlier results in patent publication US7019016B2, “NMDA NR2B antagonists for treatment” (Pfizer Inc, priority 2000, dated 2006).

Columns and labels:
[1] = target: NMDA receptors comprised of NR1/NR2B subunits (Homo sapiens, UniProt Q05586+Q13224); details: NR1/NR2B subunits compared to NR1/NR2A, NR2C, or NR2D subunits
[2] = animal models of pain perception

Sequence of NMDA receptors comprised of NR1/NR2B subunits (Q13224 27-1484, other chains not shown): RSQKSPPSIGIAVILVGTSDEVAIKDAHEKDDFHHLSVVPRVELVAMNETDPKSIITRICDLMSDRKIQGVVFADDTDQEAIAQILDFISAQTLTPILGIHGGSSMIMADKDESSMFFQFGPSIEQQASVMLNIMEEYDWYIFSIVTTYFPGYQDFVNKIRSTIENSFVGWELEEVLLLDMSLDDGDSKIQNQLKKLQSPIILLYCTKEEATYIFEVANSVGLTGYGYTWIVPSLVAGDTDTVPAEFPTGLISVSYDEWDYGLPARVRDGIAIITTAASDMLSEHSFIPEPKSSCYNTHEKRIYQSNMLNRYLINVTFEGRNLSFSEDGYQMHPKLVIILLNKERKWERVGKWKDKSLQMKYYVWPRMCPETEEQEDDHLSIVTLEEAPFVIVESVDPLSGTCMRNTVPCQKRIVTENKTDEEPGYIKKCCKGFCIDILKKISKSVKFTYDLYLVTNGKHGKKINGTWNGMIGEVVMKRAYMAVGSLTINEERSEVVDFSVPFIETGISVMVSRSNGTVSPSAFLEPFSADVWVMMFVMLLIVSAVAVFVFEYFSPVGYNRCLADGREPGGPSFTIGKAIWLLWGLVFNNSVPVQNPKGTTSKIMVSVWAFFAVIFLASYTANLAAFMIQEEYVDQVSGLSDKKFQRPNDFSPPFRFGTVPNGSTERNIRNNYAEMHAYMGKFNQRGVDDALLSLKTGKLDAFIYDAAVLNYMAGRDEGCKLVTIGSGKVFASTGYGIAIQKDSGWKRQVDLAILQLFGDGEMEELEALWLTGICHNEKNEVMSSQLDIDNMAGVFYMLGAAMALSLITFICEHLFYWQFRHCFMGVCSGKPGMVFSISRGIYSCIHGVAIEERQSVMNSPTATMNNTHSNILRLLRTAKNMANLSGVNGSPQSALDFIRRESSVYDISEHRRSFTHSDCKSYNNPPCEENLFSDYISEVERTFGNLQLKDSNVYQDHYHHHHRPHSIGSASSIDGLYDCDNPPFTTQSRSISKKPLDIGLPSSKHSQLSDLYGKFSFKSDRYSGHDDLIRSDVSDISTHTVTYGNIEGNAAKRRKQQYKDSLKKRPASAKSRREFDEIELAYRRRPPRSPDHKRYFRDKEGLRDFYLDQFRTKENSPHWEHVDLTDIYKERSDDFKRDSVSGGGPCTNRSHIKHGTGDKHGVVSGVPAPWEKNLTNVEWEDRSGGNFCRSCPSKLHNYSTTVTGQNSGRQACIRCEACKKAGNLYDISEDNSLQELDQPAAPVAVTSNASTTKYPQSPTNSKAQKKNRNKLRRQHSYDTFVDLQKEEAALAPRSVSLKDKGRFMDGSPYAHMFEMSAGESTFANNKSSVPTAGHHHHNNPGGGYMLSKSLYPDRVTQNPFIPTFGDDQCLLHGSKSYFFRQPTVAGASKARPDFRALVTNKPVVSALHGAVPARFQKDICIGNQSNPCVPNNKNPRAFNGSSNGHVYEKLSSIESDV

blockade of ion current through NMDA receptors [1]: more potent and efficacious
SMILES: CC(C(O)c1ccc(O)cc1)N1CCC(Cc2ccccc2)CC1 (centres unmarked) [ifenprodil]
analgesic activity [2]: significant analgesic activity
